Experimental data taken from PubChem BioAssay (NCI).
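These data come from cells grown in 96-well plates and exposed to compound for 48 hours at five concentrations. TGI denotes the concentration required for complete inhibition of growth.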

Columns and labels:
Test in all cases: growth of human tumour cells (NCI), 48 h
LOX IMVI melanoma = system: LOX IMVI melanoma
MDA-N = system: MDA-N
SF-268 CNS = system: SF-268 CNS
UO-31 renal = system: UO-31 renal
OVCAR-8 ovarian = system: OVCAR-8 ovarian
BT-549 breast = system: BT-549 breast
MALME-3M melanoma = system: MALME-3M melanoma
HCT-116 colon = system: HCT-116 colon
OVCAR-5 ovarian = system: OVCAR-5 ovarian
NCI-H226 lung = system: NCI-H226 lung
EKVX NSCLC = system: EKVX NSCLC
CCRF-CEM leukemia = system: CCRF-CEM leukemia
U251 CNS = system: U251 CNS
HT29 colon = system: HT29 colon
T-47D breast = system: T-47D breast
DU-145 prostate = system: DU-145 prostate
OVCAR-3 ovarian = system: OVCAR-3 ovarian
HOP-62 NSCLC = system: HOP-62 NSCLC
NCI-H23 lung = system: NCI-H23 lung
PC-3 prostate = system: PC-3 prostate
NCI/ADR-RES ovarian = system: NCI/ADR-RES ovarian
MDA-MB-231 breast = system: MDA-MB-231 breast
K-562 leukemia = system: K-562 leukemia
MOLT-4 leukemia = system: MOLT-4 leukemia
SF-295 CNS = system: SF-295 CNS
NCI-H522 lung = system: NCI-H522 lung
SK-MEL-5 melanoma = system: SK-MEL-5 melanoma
786-0 renal = system: 786-0 renal
UACC-62 melanoma = system: UACC-62 melanoma
A498 renal = system: A498 renal
ACHN renal = system: ACHN renal
SNB-19 CNS = system: SNB-19 CNS
CAKI-1 renal = system: CAKI-1 renal
TK-10 renal = system: TK-10 renal
NCI-H460 lung = system: NCI-H460 lung
SK-MEL-2 melanoma = system: SK-MEL-2 melanoma
HOP-92 NSCLC = system: HOP-92 NSCLC
HS 578T breast = system: HS 578T breast
RXF 393 renal = system: RXF 393 renal
RPMI-8226 leukemia = system: RPMI-8226 leukemia
A549 NSCLC = system: A549 NSCLC
IGROV1 ovarian = system: IGROV1 ovarian
OVCAR-4 ovarian = system: OVCAR-4 ovarian
UACC-257 melanoma = system: UACC-257 melanoma
SK-MEL-28 melanoma = system: SK-MEL-28 melanoma
SN12C renal = system: SN12C renal
HCT-15 colon = system: HCT-15 colon
KM12 colon = system: KM12 colon
COLO 205 colon = system: COLO 205 colon
MCF7 breast = system: MCF7 breast
M14 melanoma = system: M14 melanoma
SW-620 colon = system: SW-620 colon
MDA-MB-435 = system: MDA-MB-435
SF-539 CNS = system: SF-539 CNS
HCC-2998 colon = system: HCC-2998 colon
SK-OV-3 ovarian = system: SK-OV-3 ovarian
SR leukemia = system: SR leukemia

Measured: TGI

COc1ccc2c(-c3csc(-c4c[nH]c5ccc(Br)cc45)n3)c[nH]c2c1
83.1 µM: MDA-MB-231 breast
43.9 µM: MALME-3M melanoma
30.8 µM: MDA-N
92.6 µM: NCI-H522 lung
79.3 µM: PC-3 prostate
67.9 µM: MDA-MB-435
73.4 µM: SF-268 CNS
27.9 µM: RXF 393 renal
> 100 µM: LOX IMVI melanoma | UO-31 renal | OVCAR-8 ovarian | BT-549 breast | HCT-116 colon | OVCAR-5 ovarian | NCI-H226 lung | EKVX NSCLC | CCRF-CEM leukemia | U251 CNS | HT29 colon | T-47D breast | DU-145 prostate | OVCAR-3 ovarian | HOP-62 NSCLC | NCI-H23 lung | NCI/ADR-RES ovarian | K-562 leukemia | MOLT-4 leukemia | SF-295 CNS | SK-MEL-5 melanoma | 786-0 renal | UACC-62 melanoma | A498 renal | ACHN renal | SNB-19 CNS | CAKI-1 renal | TK-10 renal | NCI-H460 lung | SK-MEL-2 melanoma | HOP-92 NSCLC | HS 578T breast | RPMI-8226 leukemia | A549 NSCLC | IGROV1 ovarian | OVCAR-4 ovarian | UACC-257 melanoma | SK-MEL-28 melanoma | SN12C renal | HCT-15 colon | KM12 colon | COLO 205 colon | MCF7 breast | M14 melanoma | SW-620 colon

CN(C)c1cccc(-c2cc(=S)c3cc4c(cc3[nH]2)OCO4)c1
> 77.7 µM: HCC-2998 colon
11.8 µM: MDA-N
43.3 µM: RXF 393 renal
24.7 µM: HT29 colon
> 100 µM: LOX IMVI melanoma | SF-268 CNS | UO-31 renal | OVCAR-8 ovarian | BT-549 breast | MALME-3M melanoma | HCT-116 colon | SF-539 CNS | OVCAR-5 ovarian | NCI-H226 lung | EKVX NSCLC | CCRF-CEM leukemia | U251 CNS | T-47D breast | DU-145 prostate | OVCAR-3 ovarian | HOP-62 NSCLC | NCI-H23 lung | PC-3 prostate | NCI/ADR-RES ovarian | MDA-MB-231 breast | K-562 leukemia | SK-OV-3 ovarian | SF-295 CNS | SK-MEL-5 melanoma | 786-0 renal | UACC-62 melanoma | A498 renal | ACHN renal | SNB-19 CNS | CAKI-1 renal | TK-10 renal | NCI-H460 lung | SK-MEL-2 melanoma | HOP-92 NSCLC | HS 578T breast | RPMI-8226 leukemia | A549 NSCLC | IGROV1 ovarian | OVCAR-4 ovarian | UACC-257 melanoma | SK-MEL-28 melanoma | SN12C renal | HCT-15 colon | SR leukemia | KM12 colon | COLO 205 colon | MCF7 breast | M14 melanoma | SW-620 colon
> 93 µM: MOLT-4 leukemia
67.7 µM: NCI-H522 lung
